Data published in patent publication US20250020667A1, “DEVELOPMENT OF MICROBIAL BIOSENSORS FOR INTESTINAL INFLAMMATION” (Baylor College of Medicine, priority 2017, published 2025).
Structures can show the parent of a compound that is named as a salt.

Assays:
[1] = test system: L. reuteri acyl carrier protein dehydratase promoter GFP biosensor; conditions: co-cultured with 40 ug/mL calprotectin
[2] = test system: E. coli Nissle L36/L31 ribosomal accessory protein promoter GFP biosensor; conditions: sensors co-cultured with calprotectin
[3] = test system: E. coli Nissle enterobactin synthase promoter GFP biosensor
[4] = test system: L. reuteri ABC transporter promoter GFP biosensor; assay: Metal complementation assay (metal added to sensors co-cultured with calprotectin); assay type: cell-based, Lactobacillus reuteri
Protocol: Metal complementation assays—Mixes were similar to the calprotectin induction assays with the addition of zinc (II) sulfate, manganese (II) sulfate, or iron (II) chloride. Concentrations of metals were added in excess of 1×, 10×, and 100× the binding capacity of 40 ug/mL (1.4 uM) calprotectin. In total, 0, 4 uM, 40 uM, and 400 uM of zinc and iron were added and 0, 2 uM, 20 uM, and 200 uM of manganese was added. Slightly higher than equimolar amounts were added to correct for possible pipetting error. Cells were grown for the same amount of time as in the calprotectin induction assays.
Flow cytometry—˜10-40 uL of cells were added to 1 mL of PBS sheath fluid and run through the flow cytometer for a total of 10000 events. Cells were thresholded by forward/side scatter, and.fsc files were analyzed with the FlowCal software, developed by the Jeff Tabor Lab. In short, FlowCal identifies the densest region of cells on the associated scatterplot, and analyzes the fluorescent output of 30% of the cells in this region so as to evaluate a homogenous dataset and remove possible outliers. […] In this case, GFP output is reported as molecules of equivalent fluorophores (MEF), and was evaluated on the FL1 channel.

[5] = test system: E. coli Nissle L36/L31 ribosomal accessory protein promoter (ykgMO) GFP biosensor; assay: Induction of promoter-GFP biosensor, GFP by flow cytometry; assay type: cell-based, Escherichia coli
Description: (§1) Initial Data. […] Sequences were obtained via Illumina NextSeq and mapped against E. coli Nissle 1917 reference genome.
(§2) Initial test constructs consisted of the intergenic promoter regions for the following genes: E. coli Nissle—sulA, entCE (enterobactin synthase operon), ykgMO (paralog for L36/L31 ribosomal accessory protein), ABC Transporter (WP_000977398.1); L. reuteri—ABC Transporter operon (EGC15836.1), Acyl carrier protein dehydratase (EGC15031.1), argininosuccinate lyase (EGC15288.1). Each promoter region was cloned directly upstream of a green fluorescent protein cassette. For L. reuteri, the eGFP cassette was used while the sGFP cassette was used for E. coli. All constructs were assembled via the Gibson Reaction (NEBiosciences).

[6] = test system: E. coli Nissle enterobactin synthase promoter GFP biosensor; assay: as above; assay type: cell-based, Escherichia coli
Description: as §1, §2

[7] = test system: L. reuteri acyl carrier protein dehydratase promoter GFP biosensor; assay: as above; assay type: cell-based, Lactobacillus reuteri; conditions: co-cultured with TPEN vs uninduced sensor
Protocol: All constructs were assembled via the Gibson Reaction (NEBiosciences).
All flow runs were performed in 96 well plates.
TPEN Induction—TPEN, a synthetic zinc chelator, induction assays were performed as calprotectin induction, with TPEN replacing calprotectin. Growth condition were also identical. Media ratios differed. In the TPEN studies, 180 uL of media was used with 20 uL cells and 2 uL of TPEN in absolute ethanol.

[8] = test system: Lactobacillus reuteri ABC transporter promoter GFP sensor; conditions: 40 ug/mL calprotectin vs uninduced sensor
Description: as §2

[9] = test system: Lactobacillus reuteri PTA 6475; assay: Minimum inhibitory concentration (MIC) assay, overnight growth, OD600; assay type: cell-based; conditions: L. reuteri
Protocol: (§3) Minimum inhibitory concentration (MIC) assay—Escherichia coli Nissle 1917 and Lactobacillus reuteri PTA 6475 were used as vectors for biosensor construction. For both strains, bacteria was grown overnight in media (MRS broth for L. reuteri; LB broth for E. coli). From the overnight culture, 10^4 bacterial cells in 38 uL media (LDM4 for L. reuteri; LB broth for E. coli) were seeded into a 96 well-plate. 62 uL of calprotectin in buffer (20 mM Tris (pH 7.5), 100 mM NaCl, 10 mM beta-mercaptoethanol, 3 mM CaCl2) was added in 2-fold dilutions. Recombinant human calprotectin was supplied by Dr. Walter Chazin of Vanderbilt University. Bacteria was allowed to grow overnight, and OD600 values were taken the following morning.
(§4) RNA Isolation—Sub-inhibitory concentrations of calprotectin were used for the calprotectin induction. […] Cells were grown overnight, and then back-diluted 1:100 into 5 mL of media (LDM4 for L. reuteri; LB Broth for E. coli). Cells were grown up to log phase, and then the sub-inhibitory amount of calprotectin was added to the tube in calprotectin buffer. Growth continued for 30 total minutes in the presence of the calprotectin, and then transcription was frozen by addition of ice cold methanol for L. reuteri and ice-cold ethanol for E. coli Nissle. Cells were collected via centrifugation, and then RNA was isolated using the QIAgen RNEasy kit. Slight modifications were included. For L. reuteri, mechanical cell-wall disruption was used via bead-beating. For E. coli, lysozyme/proteinase K was used to disrupt the gram-negative cell wall. RNA was quantified and tested for purity using a Nanodrop.
(§5) Both prospective vector strains (Lactobacillus reuteri and Escherichia coli Nissle) were grown overnight in the presence of 2-fold dilutions of calprotectin in order to deduce minimum inhibitory concentrations of calprotectin on the microbes.

[10] = test system: Escherichia coli Nissle 1917; assay: as above; assay type: cell-based; conditions: E. coli Nissle
Protocol: as §3, §4, §5

[11] = co-cultured with 40 ug/mL calprotectin
[12] = co-cultured with 1.5 uM TPEN vs media only
[13] = 40 ug/mL calprotectin vs un-induced
[14] = overnight growth, 2-fold dilutions

Molecule: [Zn+2] [zinc, zinc (II) sulfate]
- zinc concentration sufficient to totally abolish promoter activity [1]: 4 µM
- effect of added zinc on calprotectin-induced increase in GFP expression [2]: abolishes the calprotectin-induced increase in GFP expression
- zinc concentration sufficient to totally abolish promoter activity [3, 11]: 4 µM
- effect of added zinc on calprotectin-induced increase in GFP expression ([3]; sensors co-cultured with calprotectin): abolishes the calprotectin-induced increase in GFP expression
- zinc concentration sufficient to totally abolish promoter activity [4, 11]: 4 µM

Molecule: c1ccc(CN(CCN(Cc2ccccn2)Cc2ccccn2)Cc2ccccn2)nc1 [TPEN, N,N,N′,N′-tetrakis(2-pyridinylmethyl)-1,2-ethanediamine]
- fold increase in GFP expression [5, 12]: 4.5 fold
- fold increase in GFP expression [6, 12]: 5.6 fold
- fold increase in GFP expression [7]: 2.5 fold

Molecule: [Cl][Fe][Cl] [iron, iron (II) chloride]
- iron excess required to turn off promoter activity ([4]; × the binding capacity of 40 ug/mL calprotectin, possibly a cell survival issue): 100 ×

Molecule: O=S(=O)([O-])[O-].[Mn+2] [manganese, manganese (II) sulfate]
- effect of added manganese on sensor activity ([4]; manganese at 100× binding capacity of 40 ug/mL calprotectin): did not fully ablate sensor activity

B1: calprotectin: neutrophil-source antimicrobial peptide heterodimer that sequesters zinc, manganese and iron; recombinant human, supplied by Dr. Walter Chazin (protein, UniProt P05109 1-93; P06702 1-114, looked up)
Protein S100-A8: MLTELEKALNSIIDVYHKYSLIKGNFHAVYRDDLKKLLETECPQYIRKKGADVWFKELDINTDGAVNFQEFLILVIKMGVAAHKKSHEESHKE
Protein S100-A9: MTCKMSQLERNIETIINTFHQYSVKLGHPDTLNQGEFKELVRKDLQNFLKKENKNEKVIEHIMEDLDTNADKQLSFEEFIMLMARLTWASHEKMHEGDEGPGHHHKPGLGEGTP
- fold increase in GFP expression [8]: 4.93 fold
- fold increase in GFP expression [5, 13]: 2.6 fold
- fold increase in GFP expression [6, 13]: 1.8 fold
- highest concentration that did not inhibit overnight growth (sub-inhibitory concentration) [9]: 15.625 µg/mL
- minimum inhibitory concentration (growth inhibited at this concentration and above) [9, 14]: 31.25 µg/mL
- highest concentration that did not inhibit overnight growth (sub-inhibitory concentration) [10]: 125 µg/mL
- minimum inhibitory concentration (growth inhibited at this concentration and above) [10, 14]: 250 µg/mL
